Test results taken from patent US6426357B1, “Antagonists of follicle stimulating hormone activity” (Affymax, Inc., priority 1999, dated 2002).

NC(=O)CCN1C(=O)[C@@H](CC(=O)NCCc2ccc(Br)cc2)S[C@H]1c1ccc(C#Cc2ccccc2)s1 (relative stereo) [Example 13, 3-[(2S*,5R*)-5-{[2-(4-Bromo-phenyl)-ethylcarbamoyl]-methyl}-4-oxo-2-(5-phenylethynyl-thiophen-2-yl)-thiazolidin-3-yl]-propionamide]
melting point: 241 to 243 °C
